Measurements from patent US20100331269A1, “TRITERPENES DERIVATIVES AND USES THEREOF AS ANTITUMOR AGENTS OR ANTI-INFLAMMATORY AGENTS” (priority 2006, published 2010).

Tests used:
[1] = test system: L1210 murine lymphocytic leukemia; details: 200 mg/kg; cited from earlier work
[2] = test system: WS-1 human normal skin fibroblasts; assay: Cytotoxicity, resazurin metabolism assay, WS-1; assay type: cell-based; details: 48 h, mean ± SD
From the text: (§1) Human lung carcinoma (A-549), human colon adenocarcinoma (DLD-1), human normal fibroblasts (WS1), mice melanoma (B16-F1), Human glioma (U-251), Human hepatocellular carcinoma (HEP G2), Human prostate adenocarcinoma (PC-3), Human ovary teratocarcinoma metastatic (PA-1), Human breast adenocarcinona metastatic (MDA-MB-231), Human breast adenocarcinoma (MCF-7) and Human malignant melanoma (SK-MEL-2) cell lines were obtained from the American Type Culture Collection (ATCC). All cell lines were cultured in minimum essential medium containing Earle's salts and L-glutamine (Mediatech Cellgro, Va.), to which was added 10% fetal bovine serum (Hyclone), vitamins (1×), penicillin (100 I.U./mL) and streptomycin (100 μg/mL), essential amino acids (1×) and sodium pyruvate (1×) (Mediatech Cellgro, Va.). Cells were kept at 37° C. in a humidified environment containing 5% CO2.
(§2) Exponentially growing cells were plated in 96-well microplates (Costar, Corning Inc.) at a density of 5×10^3 cells per well in 100 μL of culture medium and were allowed to adhere for 16 hours before treatment. Increasing concentrations of each compound in DMSO (Sigma-Aldrich) were then added (100 μL per well) and the cells were incubated for 48 h. […] Cytotoxicity was assessed using resazurin (O'Brien, J. et al., Eur. J. Biochem. 2000, 267, 5421-5426) on an automated 96-well Fluoroskan Ascent F1™ plate reader (Labsystems) using excitation and emission wavelengths of 530 nm and 590 nm, respectively. Fluorescence was proportional to the cellular metabolic activity in each well. Survival percentage was defined as the fluorescence in experimental wells compared to that in control wells after subtraction of blank values. Each experiment was carried out three times in triplicata. IC50 results were expressed as mean±standard deviation.
(§3) The cytotoxicity of triterpenes (1-8) and corresponding glycosides (9-30) (Table 2 below) as well as of germanicane-type triterpenes and glycosides (31-44) (Table 3 below) was assessed towards human cancer (A-549, DLD-1), mouse melanoma (B16-F1) and human normal skin fibroblast (WS1) cell lines using the resazurin reduction test (RTT test) as previously described (O'Brien, J. et al., Eur. J. Biochem. 2000, 267, 5421-5426). Measurements of fluorescence were carried out after 48 continuous hours of contact between compounds and cells. Results presented in Tables 2 and 3 below express the concentration inhibiting 50% of the cell growth (IC50). Known for its activity against A-549, betulinic acid (3) was used as a positive control in this experimentation. […] The cytotoxic activity of some of these compounds was also assessed using the Hoechst DNA assay (Table 4 below).

Lewis lung carcinoma = assay: In vivo antitumoral activity against Lewis lung cancer-bearing mice; parameters: species or system C57BL/6 mouse; details: day 13
Experimental: Cell lines and mice preparation: The Lewis lung carcinoma cell lines (#CRL-1642, lot # 4372266, ATCC) and the C57BL/6 mouse strain (Charles River Inc., St-Constant, Qc) were used. Cells were grown to 90% confluence in complete DMEM medium containing Earle's salts and L-glutamine (Mediatech Cellgro, Va.), 10% foetal bovine serum (Hyclone), vitamins (1×), penicillin (100 I.U./mL) and streptomycin (100 μg/mL), essential amino acids (1×) and sodium pyruvate (1×) (Mediatech Cellgro, Va.). Cells were then harvested with up and down only. Cells were counted using a hemacytometer and resuspended in DMEM medium without SVF. 100 μL of a solution containing 1×10^7 cells/mL was inoculated subcutaneously in the right flank of each 6 weeks old mouse on day zero.
The experimental mice were weighed daily.
Data analysis: In vivo antitumor activity was evaluated according to the parameters as follows (Miot-Noirault, E. et al. Invest. New Drugs 2004, 22, 369-378):
(a) Calculated tumour weight (CTW): The CTW of each tumour was estimated from two-dimensional measurements performed once a day with a slide calliper, according to the formula: CTW (mg)=(L×W^2)/2 with L=length in mm and W=width in mm. Differences in CTW between treated and control groups (DMSO) were analyzed for significance using the U Wilcoxon-Mann-Whitney test and Student t-test. Values of p<0.05 were considered statistically significant.
(b) Treated/Control value (T/C) and Tumour Growth Inhibition (TGI):The T/C was calculated as the ratio of the mean CTW of TW of drug-treated mice versus controls: T/C=(CTW of the drug-treated group on Day X/CTW of the control group on Day X)×100. TGI is 100−(T/C) value.

[3] = test system: DLD-1 human colorectal adenocarcinoma cells; assay: Cytotoxicity, resazurin metabolism assay, DLD-1; assay type: cell-based; details: 48 h, mean ± SD
From the text: as §1, §2, §3

[4] = test system: A-549 human lung carcinoma cells; assay: Cytotoxicity, resazurin metabolism assay, A-549; assay type: cell-based; details: 48 h, mean ± SD
From the text: as §1, §2, §3

DLD-1 cells = assay: Cytotoxicity, Hoechst DNA assay, DLD-1; assay type: cell-based, human; details: ± SD
From the text: as §1, §3

[5] = test system: Walker 256 murine carcinosarcoma; details: cited from earlier work
B16-F1 cells = assay: Cytotoxicity, Hoechst DNA assay, B16-F1; assay type: cell-based, mouse; details: ± SD
From the text: as §1, §3

[6] = test system: B16-F1 mouse melanoma cells; assay: Cytotoxicity, resazurin metabolism assay, B16-F1; assay type: cell-based; details: 48 h, mean ± SD
From the text: as §1, §2, §3

A-549 cells = assay: Cytotoxicity, Hoechst DNA assay, A-549; assay type: cell-based, human; details: ± SD
From the text: as §1, §3

WS-1 cells = assay: Cytotoxicity, Hoechst DNA assay, WS-1; assay type: cell-based, human; details: ± SD
From the text: as §1, §3

[7] = test system: MCF-7 human breast adenocarcinoma cells; assay: Cytotoxicity, resazurin metabolism assay, MCF-7; assay type: cell-based; details: mean ± SD
From the text: as §1, §2
(§4) Compounds presented in Table 5 below were also tested in the following tumour cell lines: U-251 (Human glioma), HEP G2 (Human hepatocellular carcinoma), PC-3 (Human prostate adenocarcinoma), PA-1 (Human ovary teratocarcinoma metastatic), MDA-MB-231 (Human breast adenocarcinona metastatic), MCF-7 (Human breast adenocarcinoma) and SK-MEL-2 (Human malignant melanoma).

U-251 human glioma cells = assay: Cytotoxicity, resazurin metabolism assay, U-251; assay type: cell-based; details: mean ± SD
From the text: as §1, §2, §4

[8] = test system: PA-1 human ovary teratocarcinoma cells; assay: Cytotoxicity, resazurin metabolism assay, PA-1; assay type: cell-based; details: mean ± SD
From the text: as §1, §2, §4

[9] = test system: PC-3 human prostate adenocarcinoma cells; assay: Cytotoxicity, resazurin metabolism assay, PC-3; assay type: cell-based; details: mean ± SD
From the text: as §1, §2, §4

[10] = test system: MDA-MB-231 human breast adenocarcinoma cells; assay: Cytotoxicity, resazurin metabolism assay, MDA-MB-231; assay type: cell-based; details: mean ± SD
From the text: as §1, §2, §4

[11] = test system: Hep G2 human hepatocellular carcinoma cells; assay: Cytotoxicity, resazurin metabolism assay, Hep G2; assay type: cell-based; details: mean ± SD
From the text: as §1, §2, §4

[12] = test system: SK-Mel-2 human melanoma cells; assay: Cytotoxicity, resazurin metabolism assay, SK-Mel-2; assay type: cell-based; details: mean ± SD
From the text: as §1, §2, §4

[13] = test system: NO production in lipopolysaccharide (LPS) stimulated cells; details: read-out: IC50 (NO production); cells stimulated with 100 ug/ml LPS, 24 h, Griess reaction
Experimental: Exponentially growing cells were plated in 24-well microplates (BD Falcon) at a density of 2×10^5 cells per well in 400 μl of culture medium and were allowed to adhere overnight. Cells were then treated or not with positive control N(G)-nitro-L-arginine methyl ester (L-NAME), or increasing concentrations of methanol extracts dissolved in the appropriate solvents, and incubated at 37° C., 5% CO2 for 24 h. The final concentration of solvent in the culture medium was maintained at 0.5% (volume/volume) to avoid solvent toxicity. Cells were then stimulated with 100 ug/ml lipopolysaccharide (LPS). After 24 h, cell-free supernatants were collected and stored at −80° C. until NO determination using the Griess reaction (Green et al. 1990) with minor modifications. Briefly, 100 μl aliquots of cell supernatants were incubated with 50 μl of 1% sulfanilamide and 50 μl of 0.1% N-1-naphtylethylenediamine dihydrochloride in 2.5% H3PO4 at room temperature for 20 min. Absorbance at 540 nm was then measured using an automated 96-well Varioskan Ascent™ plate reader (Thermo Electron) and the presence of nitrite was quantified by comparison with an NaNO2 standard curve.

| Structure (SMILES) | IC50 [2] [µM] | IC50 [3] [µM] | IC50 [4] [µM] | IC50 (DLD-1 cells) [µM] | IC50 (B16-F1 cells) [µM] | IC50 [6] [µM] | IC50 (A-549 cells) [µM] | IC50 (WS-1 cells) [µM] | IC50 [7] [µM] | IC50 (U-251 human glioma cells) [µM] | IC50 [8] [µM] | IC50 [9] [µM] | IC50 [10] [µM] | IC50 [11] [µM] | IC50 [12] [µM] | further results |
| --- | --- | --- | --- | --- | --- | --- | --- | --- | --- | --- | --- | --- | --- | --- | --- | --- |
| C=C(C)[C@@H]1CC[C@]2(C(=O)O)CC[C@]3(C)[C@H](CC[C@@H]4[C@@]5(C)CC[C@H](O)C(C)(C)[C@@H]5CC[C@]43C)[C@@H]12 [Compound 3, Betulinic acid, reference compound] | 12 ± 1 | 15 ± 0.3 | 10.3 ± 0.4 | 12 ± 1 | 18 ± 2 | 16.1 ± 0.5 | 8 ± 1 | 14 ± 2 | – | – | – | – | – | – | – | Activity in the L1210 murine lymphocytic leukemia model [1]: inactive; CTW (calculated tumour weight) (Lewis lung carcinoma; 50 mg/kg IP every 3-4 days): 294 ± 69 mg; T/C (Treated/Control) (Lewis lung carcinoma; 50 mg/kg IP): 90%; TGI (Tumour Growth Inhibition) (Lewis lung carcinoma; 50 mg/kg IP): 10%; CTW (calculated tumour weight) (Lewis lung carcinoma; 100 mg/kg IP every 3-4 days): 264 ± 58 mg; T/C (Treated/Control) (Lewis lung carcinoma; 100 mg/kg IP): 81%; TGI (Tumour Growth Inhibition) (Lewis lung carcinoma; 100 mg/kg IP): 19%; CTW (calculated tumour weight) (Lewis lung carcinoma; 200 mg/kg IP every 3-4 days): 265 ± 58 mg; T/C (Treated/Control) (Lewis lung carcinoma; 200 mg/kg IP): 81%; TGI (Tumour Growth Inhibition) (Lewis lung carcinoma; 200 mg/kg IP): 19%; Activity in the Walker 256 model (subsequent report) ([5]; 400 mg/kg): inactive; Activity against the Walker 256 murine carcinosarcoma tumor system ([5]; dose levels of 300 and 500 mg/kg body weight): dose-dependent activity |
| C=C(C)[C@@H]1CC[C@]2(C)CC[C@]3(C)[C@H](CC[C@@H]4[C@@]5(C)CC[C@H](O[C@H]6OC[C@@H](O)[C@@H](O)[C@@H]6O)C(C)(C)[C@@H]5CC[C@]43C)[C@@H]12 [Compound 11, 3-O-α-D-Arabinopyranoside of Lupeol] | 15.8 ± 0.8 | 50 ± 6 | 28 ± 2 | 69 ± 7 | 28 ± 1 | 27 ± 2 | 34 ± 2 | 24 ± 1 | 23 ± 2 | 10.1 ± 0.2 | 9.8 ± 0.6 | 26 ± 3 | 11 ± 1 | 10 ± 0.9 | 10 ± 0.8 | – |
| C=C(C)C1CCC2(COC3OCC(O)C(O)C3O)CCC3(C)C(CCC4C5(C)CCC(O)C(C)(C)C5CCC43C)C12 [Compound 17, 28-O-α-D-Arabinopyranoside of Betulin] | > 175 | > 175 | > 175 | > 194 | > 194 | > 175 | > 194 | > 194 | – | – | – | – | – | – | – | IC50 [13]: 25 ± 1 µM |
| C=C(C)[C@@H]1CC[C@]2(C(=O)OC)CC[C@]3(C)[C@H](CC[C@@H]4[C@@]5(C)CC[C@H](O[C@@H]6O[C@H](CO)[C@@H](O)[C@H](O)[C@H]6O)C(C)(C)[C@@H]5CC[C@]43C)[C@@H]12 [Compound 18, 3-O-β-D-Glucopyranoside of Methyl Betulinate] | 9.3 ± 0.2 | 3.93 ± 0.09 | 8.4 ± 0.3 | 4 ± 0.2 | 7.2 ± 0.8 | 7.1 ± 0.3 | 9.3 ± 0.6 | 12 ± 2 | 110 ± 6 | 84 ± 2 | 60 ± 20 | 130 ± 30 | 101.7 ± 0.1 | 79 ± 5 | 103 ± 4 | – |
| C=C(C)[C@@H]1CC[C@]2(C(=O)OC)CC[C@]3(C)[C@H](CC[C@@H]4[C@@]5(C)CC[C@H](O[C@H]6OC[C@@H](O)[C@@H](O)[C@@H]6O)C(C)(C)[C@@H]5CC[C@]43C)[C@@H]12 [Compound 20, 3-O-α-D-Arabinopyranoside of Methyl Betulinate] | 12.5 ± 0.4 | 18 ± 1 | 13.5 ± 0.6 | 16 ± 0.6 | 12.6 ± 0.5 | 13.3 ± 0.4 | 11.7 ± 0.8 | 13.2 ± 0.7 | 21 ± 3 | 15 ± 1 | 16 ± 4 | 17 ± 1 | 16.3 ± 0.8 | 15 ± 2 | 16 ± 1 | – |
| C=C(C)[C@@H]1CC[C@]2(C(=O)O)CC[C@]3(C)[C@H](CC[C@@H]4[C@@]5(C)CC[C@H](O[C@H]6OC[C@@H](O)[C@@H](O)[C@@H]6O)C(C)(C)[C@@H]5CC[C@]43C)[C@@H]12 [Compound 23, 3-O-α-D-Arabinopyranoside of Betulinic Acid] | 47 ± 5 | 17 ± 3 | 10 ± 2 | 10 ± 1 | 10.2 ± 0.6 | 11 ± 1 | 5.7 ± 0.8 | 32 ± 2 | 45 ± 9 | 70 ± 10 | 20 ± 2 | 110 ± 10 | 57 ± 6 | 66 ± 9 | 62 ± 7 | – |
